From US4563461A, “Selective method for blocking 5HT2 receptors” (Eli Lilly and Company, priority 1983, dated 1986)
Read-outs that look alike come from different tables or passages of the source.

Key:
alpha receptors [1] = biological target: T1, alpha receptors (Rattus norvegicus, UniProt P23944); test: Antagonism of norepinephrine contraction in isolated rat aorta (apparent dissociation constant, dose ratio); assay type: cell-based; conditions: for Dose-Ratio (norepinephrine ED50 with test compound / control ED50): 10^-5 molar test compound
T1 construct: their external jugular veins and thoracic aortas dissected free of connective tissue; from tissue; host or cells: thoracic aorta of male Wistar rats
T1 sequence (P23944 1-561): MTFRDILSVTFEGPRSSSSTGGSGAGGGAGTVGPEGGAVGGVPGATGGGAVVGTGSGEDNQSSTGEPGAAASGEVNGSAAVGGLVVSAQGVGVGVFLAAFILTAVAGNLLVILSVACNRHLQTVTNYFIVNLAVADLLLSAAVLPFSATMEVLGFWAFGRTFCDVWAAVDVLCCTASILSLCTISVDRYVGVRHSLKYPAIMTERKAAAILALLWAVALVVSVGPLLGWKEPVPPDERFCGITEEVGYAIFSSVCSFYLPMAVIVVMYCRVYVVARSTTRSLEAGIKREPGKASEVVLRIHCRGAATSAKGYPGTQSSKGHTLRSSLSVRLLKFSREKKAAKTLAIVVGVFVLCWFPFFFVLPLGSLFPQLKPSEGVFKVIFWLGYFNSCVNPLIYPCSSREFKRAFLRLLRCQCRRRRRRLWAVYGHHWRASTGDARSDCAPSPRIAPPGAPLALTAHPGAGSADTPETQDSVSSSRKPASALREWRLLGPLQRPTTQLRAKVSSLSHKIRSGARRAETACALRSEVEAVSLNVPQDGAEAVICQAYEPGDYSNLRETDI
Method: (§1) The apparent dissociation constants (KB) are a measure of affinity for 5HT2 and alpha receptors and are expressed as the negative logarithm and are determined according to the following protocol.
(§2) Male Wistar rats (150-300 gram weight) were killed and their external jugular veins and thoracic aortas dissected free of connective tissue, cannulated in situ and placed in a modified Krebs' bicarbonate buffer in a suitable tissue bath. Two L-shaped 30-gauge stainless-steel hypodermic needles were inserted in each cannula and the dissected vessels gently pushed onto the needles. One needle was attached with thread to a stationary glass rod and the other to the transducer. [The procedure employed was that described by Hooker, Calkins and Fleisch, Blood Vessels, 14, 1, (1977) for use with circular smooth muscle preparations.]
(§3) The modified Krebs' bicarbonate buffer had the following makeup: (concentrations in millimoles): sodium chloride, 118.2; potassium chloride, 4.6; calcium chloride dihydrate, 1.6; potassium dihydrogenphosphate, 1.2; magnesium sulfate, 1.2; dextrose, 10.0; sodium bicarbonate, 24.8; and water q.s. to 1000 g. The tissue baths were maintained at 37° C. and were aerated with 95% oxygen-5% CO2. An initial optimum resting force of 1 and 4 g. was applied to the jugular vein and aorta, respectively. Isometric contractions were recorded as changes in grams of force on a Beckman Dynograph with Statham UC-3 transducers and microscale accessory attachment. Tissues were allowed to equilibrate 1 to 2 hours before exposure to drugs. Control responses to serotonin in the jugular vein and to norepinephrine in the aorta were obtained. The vessels were then incubated with appropriate concentrations of antagonist for one hour. Responses to serotonin or to norepinephrine were then repeated in the presence of the antagonist. Contraction to serotonin was evaluated in the jugular vein since this tissue produces marked responses to serotonin in the absence of alpha receptors--see Cohen and Wiley, J. Pharm. Exp. Ther., 205, 400 (1978). Alpha receptor antagonist activity was evaluated in the aorta.
(§4) Apparent antagonist dissociation constants were determined for each concentration of antagonist according to the following equation: [formula] wherein [B] is the concentration of the antagonist and the dose ratio is the ED50 of the agonist in the presence of the antagonist divided by the control ED50.
The in vitro rat aorta preparation described above was used.

alpha receptors [2] = test: Shift of methoxamine pressor response in pithed SHR; assay type: in vivo, rat; conditions: i.p., 10 mg./kg.
Method: SHR were anesthesized with halothane, femoral arterial and venous catheters implanted as before and the trachea cannulated. Each rat was pithed by passing a steel rod through the right orbit and down the entire length of the spinal column. The steel rod remained in place for the duration of the experiment. Immediately after pithing, the rats were ventilated with room air via a rodent respirator which eliminated any anesthetic effects. An equilibration period of 15 minutes was observed prior to control measurements and administration of drugs or vehicle i.p. Increasing doses of serotonin or methoxamine were injected i.v. 15 minutes after the equilibration period. The response was recorded and the blood pressure allowed to recover to control levels. […] The test drug was prepared fresh daily and administered by the intraperitoneal route. The compound shifted the serotonin response 22 and 480 fold at 0.1 and 3 mg./kg. dosages whereas at a 10 mg./kg. dose there was no shift in the response to methoxamine, an alpha agonist.

[3] = Blood pressure in spontaneously hypertensive rats (SHR); assay type: in vivo, rat; conditions: intraperitoneal, 10 mg./kg.
Method: In spontaneously hypertensive rats (SHR), in which blockade of alpha receptors but not 5HT2 receptors lowers blood pressure, there was no effect upon intraperitoneal administration of 1-isopropyl-6-methyl-8β-(1-methyl-2-hydroxy)propoxycarbonyl-5R-ergoline at a 10 mg./kg. dose.

5HT2 receptors [4] = biological target: T2, 5HT2 receptors (Rattus norvegicus, UniProt P14842); test: Antagonism of serotonin contraction in isolated rat jugular vein (apparent dissociation constant); assay type: cell-based; conditions: for Ratio KB alpha / KB 5HT2: rat aorta KB over rat jugular vein KB; for Kb: rat jugular vein, agonist serotonin, antagonist incubated one hour, n in parentheses, read-out: 5HT2 -Log KB ± S.E. (converted)
T2 construct: their external jugular veins and thoracic aortas dissected free of connective tissue; from tissue; host or cells: external jugular vein of male Wistar rats
T2 sequence (P14842 whole entry): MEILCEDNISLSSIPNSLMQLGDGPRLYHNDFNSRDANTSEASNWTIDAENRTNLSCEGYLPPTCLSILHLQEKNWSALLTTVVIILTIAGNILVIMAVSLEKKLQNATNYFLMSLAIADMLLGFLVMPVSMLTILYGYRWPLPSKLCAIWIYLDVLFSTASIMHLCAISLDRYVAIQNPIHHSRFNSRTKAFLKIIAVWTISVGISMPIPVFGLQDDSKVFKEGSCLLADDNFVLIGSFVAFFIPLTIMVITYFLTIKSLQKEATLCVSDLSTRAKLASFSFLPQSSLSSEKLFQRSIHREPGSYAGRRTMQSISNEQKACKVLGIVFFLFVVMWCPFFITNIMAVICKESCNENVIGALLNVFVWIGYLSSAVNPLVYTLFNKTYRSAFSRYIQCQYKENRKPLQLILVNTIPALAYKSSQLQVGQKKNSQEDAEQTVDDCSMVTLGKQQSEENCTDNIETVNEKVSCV
Method: as §1, §2, §3, §4

5HT2 receptors [5] = biological target: T2, 5HT2 receptors; assay type: in vivo; conditions: pithed SHR, i.p.
Method: SHR were anesthesized with halothane, femoral arterial and venous catheters implanted as before and the trachea cannulated. Each rat was pithed by passing a steel rod through the right orbit and down the entire length of the spinal column. The steel rod remained in place for the duration of the experiment. Immediately after pithing, the rats were ventilated with room air via a rodent respirator which eliminated any anesthetic effects. […] The response was recorded and the blood pressure allowed to recover to control levels. […] The test drug was prepared fresh daily and administered by the intraperitoneal route.

[6] = rat aorta, agonist norepinephrine, antagonist incubated one hour, n in parentheses, read-out: alpha -Log KB ± S.E. (converted)

SMILES	Dose-Ratio (norepinephrine ED50 with test compound / control ED50) (alpha receptors [1]; rat aorta)	Kb (alpha receptors [1])	Ratio KB alpha / KB 5HT2 (5HT2 receptors [4])	Kb (5HT2 receptors [4])	also measured
C=CCn1cc2c3c(cccc31)[C@H]1C[C@@H](C(=O)OCCO)CN(C)[C@@H]1C2 [1-allyl-6-methyl-8β-(2-hydroxy)ethoxycarbonyl-5R-ergoline]	2.4				
CC(O)C(C)OC(=O)[C@@H]1C[C@@H]2c3cccc4c3c(cn4C(C)C)C[C@H]2N(C)C1 (stereo partly drawn) [1-isopropyl-6-methyl-8β-(1-methyl-2-hydroxy)propoxycarbonyl-5R-ergoline]	3.6	13800 nM	300,000	0.0537 nM	Shift in the response to methoxamine (alpha receptors [2]): no shift; Effect on blood pressure [3]: no effect; Shift of the serotonin response (5HT2 receptors [5]; 0.1 mg./kg.): 22 fold; Shift of the serotonin response (5HT2 receptors [5]; 3 mg./kg.): 480 fold
CC(O)COC(=O)[C@@H]1C[C@@H]2c3cccc4c3c(cn4C(C)C)C[C@H]2N(C)C1 (stereo partly drawn) [1-isopropyl-6-methyl-8β-(2-hydroxy)propoxycarbonyl-5R-ergoline]	1.0				
CNCC12CCC(c3ccccc31)c1ccccc12 [Benzoctamine]		251 nM	16	15.8 nM	
O=C(c1ccc(F)cc1)C1CCN(CCn2c(=O)[nH]c3ccccc3c2=O)CC1 [Ketanserin, reference compound]					Kb (alpha receptors [1]; [6]): 12.6 nM
Cc1cc(CCN2CCN(c3cccc(Cl)c3)CC2)n[nH]1 [Mepiprazole]			0.4	12.6 nM	Kb (alpha receptors [1]; [6]): 5.01 nM
O=c1n(CCCN2CCN(c3cccc(Cl)c3)CC2)nc2ccccn12 [Trazodone, reference compound]		158 nM			
